Counter-ions that a name gives are not always drawn. Like-named read-outs stand apart in the source and are kept apart here. Where only a bound is given, the exact number is not on record here.

The subject of assay [1] is Klebsiella pneumoniae KP1004 (KPC-2). Nature of the assay: Checkerboard assay, biapenem potentiation (MPC8). Format: cell-based. The note with it: concentration to reduce biapenem MIC 8-fold. As for the experimental part: (§1) The potency and spectrum of β-lactamase inhibitors was determined by assessing their antibiotic potentiation activity.
(§2) The potentiation effect is observed by the reduction of the minimum inhibitory concentration of β-lactam antibiotics in the presence of β-lactamase inhibitors (BLIs). […] Methods for Dilution of Antimicrobial Susceptibility Tests for Bacteria That Grow Aerobically—Eighth Edition; Approved Standard. CLSI Document M07-A8, 2009). In this assay, multiple dilutions of two drugs, namely BLI and β-lactam (biapenem), are being tested, alone and in combination, at concentrations equal to, above and below their respective minimal inhibitory concentrations (MICs). BLIs are solubilized in 10% DMSO at 10 mg/mL. Stock solutions are further diluted, according to the needs of a particular assay, in Mueller Hinton Broth (MHB). Stock solution can be stored at −80° C.
(§3) The checkerboard (CB) assay is performed in microtiter plates. Biapenem is diluted in the x axis, each column containing a single concentration of antibiotic. BLIs are diluted in the y axis, each row containing an equal concentration of BLI. The result of these manipulations is that each well of the microtiter plate contains a unique combination of concentrations of the two agents. The assay is performed in MHB with a final bacterial inoculum of 5×10^5 CFU/mL (from an early-log phase culture). Microtiter plates are incubated during 20 h at 35° C. and are read using a microtiter plate reader (Molecular Devices) at 650 nm as well as visual observation using a microtiter plate reading mirror.
(§4) Biapenem is a carbapenem β-lactam; only selected β-lactamases confer resistance to this class of antibiotics. Among them are serine carbapemenases that belong to class A and class D. Biapenem potentiation is studied in strains expressing various carbapenemases from these classes using CB assays. […] Cyclic boronic acid derivatives were capable of reducing biapenem MICs up to 1000-fold (Table 3).

The subject of assay [2] is Acinetobacter baumannii AB1057 (OXA-58). The assay is described as follows: Checkerboard assay, biapenem potentiation (MPC8). It counts as cell-based. The note with it: concentration to reduce biapenem MIC 8-fold. As for the experimental part:
as §1, §2, §3, §4

The subject of assay [3] is Acinetobacter baumannii AB1054 (OXA-23). The assay is described as follows: Checkerboard assay, biapenem potentiation (MPC8). Format: cell-based. The note with it: concentration to reduce biapenem MIC 8-fold. As for the experimental part:
as §1, §2, §3, §4

Assay [4] deals with T1, SME-2 (Serratia marcescens SM1000 lysate) (Serratia marcescens, UniProt P52682).
T1 construct: Lysates were prepared from bacteria expressing various β-lactamases as a source of enzymes
T1 sequence (P52682 28-294 limits assumed): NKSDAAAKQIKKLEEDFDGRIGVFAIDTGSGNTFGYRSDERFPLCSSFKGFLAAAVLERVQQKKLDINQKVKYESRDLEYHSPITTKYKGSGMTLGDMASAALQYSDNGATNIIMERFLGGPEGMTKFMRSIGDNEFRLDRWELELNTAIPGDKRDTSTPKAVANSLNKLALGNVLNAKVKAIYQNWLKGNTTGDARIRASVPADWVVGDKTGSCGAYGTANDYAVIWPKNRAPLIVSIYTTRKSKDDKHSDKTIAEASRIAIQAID
Nature of the assay: Inhibition of biapenem hydrolysis by bacterial lysate. Format: biochemical. As for the experimental part:
(§5) The activity of β-lactamase inhibitors to inhibit hydrolysis of biapenem was studied. Lysates were prepared from bacteria expressing various β-lactamases as a source of enzymes. Bacterial lysates were prepared as follows. A single colony from the fresh overnight plate was transferred to 5 mL of LB broth and grown to OD600=0.6-0.8. Next, this culture was transferred to 500 mL of LB and grown to OD600=0.7-0.9. Cells were pelleted by centrifugation at 5000 RPM (JA-14 rotor) for 15 minutes at room temperature. The pellet was resuspended in 10 mL of PBS. Five freeze-thaw cycles by putting cells at −20° C. and thawing them at the room temperature were next applied. After the last thaw step cells were spun down at 18K for 30 minutes and the supernatant was collected. This lysate was stored at −20° C.
(§6) Next, the activity of bacterial lysates was optimized for biapenem cleavage as follows. 50 μl of buffer A (50 mM Sodium Phosphate pH=7; 0.5% glucose, 1 mM MgCl2) was added to each well of 96-well UV-transparent plate. 50 μl of lysate was titrated vertically in 96-well plate column to generate 2-fold lysate dilutions. 100 μl of buffer A was added to each well, placed in plate reader at 37° C. and incubated for 15 minutes. 50 μl of 50 μg/mL solutions of biapenem in buffer A (pre-incubated at 37° C. for 15 minutes) were added to each well. Hydrolysis of biapenem was measured at 296 nm. This experiment was used to determine the optimal lysate dilution which produced a linear curve of relative UV signal that decreased to approximately OD=0.3-0.5 over 1 hour.
(§7) Finally, the potency of cyclic boronic acid derivative to inhibit the cleavage of biapenem cleavage by bacterial lysates was determined. 100 μl of buffer A (50 mM Sodium Phosphate pH=7; 0.5% glucose, 1 mM MgCl2) was added to each well of 96-well UV-transparent plate. 50 μl of 6× cyclic boronic acid derivative solution in buffer A was titrated vertically in 96-well plate column to generate 3-fold dilutions. 50 μl of diluted lysate in buffer A (optimal dilution is determined in experiment above) was added, and the plate was incubated in the plate reader at 37° C. for 15 minutes. 50 μl of 50 μg/mL solution of biapenem in buffer A (pre-incubated at 37° C. for 15 minutes) were next added to each well and hydrolysis of biapenem was recorded at 296 nm. EC50 of inhibition was determined by plotting the rate of biapenem cleavage vs. cyclic boronic acid derivative concentration.

Assay [5] addresses T2, KPC-2 (Klebsiella pneumoniae KP1004 lysate) (Klebsiella pneumoniae, UniProt Q9F663).
T2 construct: Lysates were prepared from bacteria expressing various β-lactamases as a source of enzymes; endogenous in cells; host or cells: Klebsiella pneumoniae strains KP1004 and KP1008 (freeze-thaw lysate supernatants)
The description is as above. Format: biochemical. On the procedure:
as §5, §6, §7

The target of assay [6] is T3, KPC-2 (Klebsiella pneumoniae KP1008 lysate) (Klebsiella pneumoniae, UniProt Q9F663).
T3 construct: Lysates were prepared from bacteria expressing various β-lactamases as a source of enzymes; endogenous in cells; host or cells: Klebsiella pneumoniae strains KP1004 and KP1008 (freeze-thaw lysate supernatants)
T3 sequence (Q9F663 25-293 limits assumed): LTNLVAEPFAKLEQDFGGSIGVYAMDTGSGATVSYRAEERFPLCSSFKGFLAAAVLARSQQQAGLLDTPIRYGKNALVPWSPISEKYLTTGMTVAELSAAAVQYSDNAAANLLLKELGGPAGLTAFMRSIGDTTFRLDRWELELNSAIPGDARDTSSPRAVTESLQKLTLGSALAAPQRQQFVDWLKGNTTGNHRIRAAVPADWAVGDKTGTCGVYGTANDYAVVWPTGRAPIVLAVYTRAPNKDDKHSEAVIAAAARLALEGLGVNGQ
Described as above. It counts as biochemical. On the procedure: as §5, §6, §7

For assay [7], the target named is T4, KPC-3 (Escherichia coli EC1007 lysate) (Klebsiella pneumoniae, UniProt Q9F663, H272Y).
T4 construct: Lysates were prepared from bacteria expressing various β-lactamases as a source of enzymes; endogenous in cells; host or cells: Escherichia coli strain EC1007 (freeze-thaw lysate supernatant)
T4 sequence (Q9F663 25-293 H272Y): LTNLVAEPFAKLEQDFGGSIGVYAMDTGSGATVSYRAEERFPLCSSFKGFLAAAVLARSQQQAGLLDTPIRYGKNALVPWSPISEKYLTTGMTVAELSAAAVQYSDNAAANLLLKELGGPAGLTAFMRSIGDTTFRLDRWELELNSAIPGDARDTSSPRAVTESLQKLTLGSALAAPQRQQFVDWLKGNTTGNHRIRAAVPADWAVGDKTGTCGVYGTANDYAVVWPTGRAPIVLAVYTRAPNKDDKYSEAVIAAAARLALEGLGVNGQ
The description is as above. It counts as biochemical. As for the experimental part:
as §5, §6, §7

In assay [8] the test system is KP1008 KPC-2. Nature of the assay: Dose titration biapenem potentiation assay (MPC1). Format: cell-based, Klebsiella pneumoniae. The note with it: biapenem 1 μg/mL. As for the experimental part:
(§8) The potency and spectrum of β-lactamase inhibitors is also determined by assessing their biapenem potentiation activity in a dose titration potentiation assay using strains expressing serine carbapemenases (such as KPC). The potentiation effect is observed as the ability of BLI compounds to inhibit growth in the presence of sub-inhibitory concentration of biapenem. […] Biapenem is present in the test medium at 1 μg/mL. Compounds tested at the highest concentration of 40 μg/mL. […] Table 5 summarizes BLI potency of biapenem potentiation (MPC1). Biapenem MIC for each strain is also shown.

Assay [9] concerns KP1004 KPC-2. Nature of the assay: Dose titration biapenem potentiation assay (MPC1). It counts as cell-based, Klebsiella pneumoniae. The note with it: biapenem 1 μg/mL. As for the experimental part:
as §8

The test system of assay [10] is EC1007 KPC-3. The assay is described as follows: Dose titration biapenem potentiation assay (MPC1). The note with it: biapenem 1 μg/mL. Format: cell-based, Escherichia coli. As for the experimental part:
as §8

Assay [11] relates to ECL1004 NMC-A. The assay is described as follows: Dose titration biapenem potentiation assay (MPC1). Format: cell-based, Enterobacter cloacae. The conditions noted are these: biapenem 1 μg/mL. On the procedure: as §8
Where [12] appears, read: SM1000 SME-2 lysate; read-out: IC50 (μg/mL) of inhibition of biapenem hydrolysis.
[13] abbreviates: EC1007 KPC-3 lysate, read-out: IC50 (μg/mL) of inhibition of biapenem hydrolysis.
[14] abbreviates: read-out: IC50 (μg/mL) of inhibition of biapenem hydrolysis; SM1000 SME-2 lysate.

T2 sequence (Q9F663 25-293 limits assumed): as the sequence (Q9F663 25-293 limits assumed) above

Consider `O=C(O)CC1CC[C@H](NC(=O)Cc2ccccc2)B(O)O1` (stereo partly drawn) [Compound 2, 2-((3R)-2-hydroxy-3-(2-phenylacetamido)-1,2-oxaborinan-6-yl)acetic acid], for which the MPC8 entry in assay [1] is “X (X = MPC8 of less than 0.16 μg/mL.)”.
`CC(=O)N[C@H]1CCC(CC(=O)O)OB1O` (stereo partly drawn) [Compound 3, 2-((3R)-3-acetamido-2-hydroxy-1,2-oxaborinan-6-yl)acetic acid]: the MPC8 entry in assay [1] is “X (X = MPC8 of less than 0.16 μg/mL.)”; in assay [2], “Z (Z = MPC8 of greater than 1 μg/mL.)”; in assay [3], “Z (Z = MPC8 of greater than 1 μg/mL.)”. In addition, the IC50 in [4] (setting [12]) was over 4.65 µM; in assay [5], over 4.65 µM; in assay [6], over 4.65 µM; in [7] (setting [13]), 0.465 to 4.65 µM. Moreover, the “BPM MPC1 KP1008 KPC-2” value in assay [8] was “X (X = MPC1 of less than 1 μg/mL.)”. Further, the “BPM MPC1 KP1004 KPC-2” value in [9] is on record as “X (X = MPC1 of less than 1 μg/mL.)”. In assay [10], the “BPM MPC1 EC1007 KPC-3” value is on record as “X (X = MPC1 of less than 1 μg/mL.)”. Besides, in assay [11], the “BPM MPC1 ECL1004 NMC-A” value is “Y (Y = MPC1 of 1 μg/mL to 5 μg/mL.)”.
With `O=C(O)CC1CC[C@H](NC(=O)C2CC2)B(O)O1` (stereo partly drawn) [Compound 4, 2-((3R)-3-(cyclopropanecarboxamido)-2-hydroxy-1,2-oxaborinan-6-yl)acetic acid], the MPC8 entry in assay [1] is on record as “X (X = MPC8 of less than 0.16 μg/mL.)”; in [2] it was “Z (Z = MPC8 of greater than 1 μg/mL.)”; in assay [3], “Z (Z = MPC8 of greater than 1 μg/mL.)”. In addition, the IC50 in assay [4] (setting [12]) was 0.415 to 4.15 µM; in [5] it was 0.415 to 4.15 µM; in assay [6], over 4.15 µM; in assay [7] (setting [13]), 0.415 to 4.15 µM. For the same compound, the “BPM MPC1 KP1008 KPC-2” value in [8] is “X (X = MPC1 of less than 1 μg/mL.)”. Besides, the “BPM MPC1 KP1004 KPC-2” value in assay [9] was “X (X = MPC1 of less than 1 μg/mL.)”. The “BPM MPC1 EC1007 KPC-3” value in assay [10] is listed as “X (X = MPC1 of less than 1 μg/mL.)”. Also, the “BPM MPC1 ECL1004 NMC-A” value in assay [11] is “X (X = MPC1 of less than 1 μg/mL.)”.
Regarding `O=C(O)C[C@@H]1CC[C@H](NC(=O)Cc2ccccc2)B(O)O1` [Compound 6, 2-((3R,6S)-2-hydroxy-3-(2-phenylacetamido)-1,2-oxaborinan-6-yl)acetic acid], the MPC8 result in [1] is listed as “X (X = MPC8 of less than 0.16 μg/mL.)”; in assay [2], “Z (Z = MPC8 of greater than 1 μg/mL.)”; in [3] it was “X (X = MPC8 of less than 0.16 μg/mL.)”. Besides, the IC50 was 0.344 to 3.44 µM in assay [4] (setting [12]), 0.344 to 3.44 µM in [5], 0.344 to 3.44 µM in [6] and under 0.344 µM in [7] (setting [13]). The “BPM MPC1 KP1008 KPC-2” value in assay [8] is reported as “X (X = MPC1 of less than 1 μg/mL.)”. Besides, the “BPM MPC1 KP1004 KPC-2” value in [9] is on record as “X (X = MPC1 of less than 1 μg/mL.)”. Besides, in assay [10], the “BPM MPC1 EC1007 KPC-3” value was “X (X = MPC1 of less than 1 μg/mL.)”. The “BPM MPC1 ECL1004 NMC-A” value in assay [11] is on record as “X (X = MPC1 of less than 1 μg/mL.)”.
In the case of `N[C@H]1CCC(CC(=O)O)OB1O` (stereo partly drawn) [Compound 7, 2-((3R)-3-amino-2-hydroxy-1,2-oxaborinan-6-yl)acetic acid hydrochloride], the IC50 in assay [4] (setting [14]) and in assay [7] was over 5.78 µM in each case.
Turning to `C[C@]1(Cn2ccnn2)[C@H](C(=O)O)N2C(=O)C[C@H]2S1(=O)=O` [Tazobactam, reference compound], the IC50 was 0.333 to 3.33 µM in [4] (setting [14]), over 3.33 µM in assay [5], over 3.33 µM in assay [6] and over 3.33 µM in assay [7]. Besides, the “BPM MPC1 KP1008 KPC-2” value in assay [8] (numeric value) turned out to be 0.3 µg/mL. The “BPM MPC1 KP1004 KPC-2” value in [9] (numeric value) came to 40 µg/mL. Besides, the “BPM MPC1 EC1007 KPC-3” value in assay [10] (numeric value) turned out to be 5 µg/mL. Besides, the “BPM MPC1 ECL1004 NMC-A” value in [11] (numeric value) came out at 0.6 µg/mL.

The values are drawn from patent US20150119363A1, “METHODS OF TREATING BACTERIAL INFECTIONS” (Rampex Pharmaceuticals, Inc., priority 2012, published 2015).
